What follows are compounds tested against MAPK14 (human) (UniProt Q16539) (assay: Assessment of MAPK14 Kinase Activity).
MAPK14 (human), sequence (Q16539 whole entry, looked up): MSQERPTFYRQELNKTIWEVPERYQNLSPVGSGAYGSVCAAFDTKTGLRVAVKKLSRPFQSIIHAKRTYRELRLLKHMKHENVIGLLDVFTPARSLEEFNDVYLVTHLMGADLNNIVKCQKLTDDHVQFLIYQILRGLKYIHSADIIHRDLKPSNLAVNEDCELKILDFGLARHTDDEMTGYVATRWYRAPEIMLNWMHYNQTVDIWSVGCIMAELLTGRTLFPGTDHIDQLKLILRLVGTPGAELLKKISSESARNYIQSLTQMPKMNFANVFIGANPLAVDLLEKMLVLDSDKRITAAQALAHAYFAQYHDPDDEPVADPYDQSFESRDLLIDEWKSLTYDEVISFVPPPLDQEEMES

Structure (SMILES)	IC50 [nM]
Cc1cccc(-c2nc(-c3cccc(C)c3)c(-c3ccncc3)s2)c1	74
CCc1ccc(-c2nc(-c3cccc(C)c3)c(-c3cc[n+]([O-])cc3)s2)cc1	1700
CC(=O)Nc1nc(-c2ccccc2C)c(-c2ccncc2)s1	340
CC(=O)Nc1nc(-c2cccc(F)c2)c(-c2ccncc2)s1	140
CC(=O)Nc1nc(-c2ccc(C)cc2)c(-c2ccncc2)s1	76
CC(=O)Nc1nc(-c2ccccc2Cl)c(-c2ccncc2)s1	260
COc1ccccc1-c1nc(NC(C)=O)sc1-c1ccncc1	1300
COc1ccc(-c2nc(NC(C)=O)sc2-c2ccncc2)cc1	74
Cc1cccc(-c2nc(-c3ccccc3)sc2-c2ccncc2)c1	200
COc1cccc(-c2nc(NC(C)=O)sc2-c2ccncc2)c1	73
Cc1cccc(-c2nc(-c3ccc(C(=O)O)cc3)sc2-c2ccncc2)c1	210

Stronger by IC50, values ahead:

IC50 [nM]	Structure (SMILES)
41	Cc1ccc(-c2nc(-c3cccc(C)c3)c(-c3ccncc3)s2)cc1
69	Cc1cccc(-c2nc(-c3ccccc3C)sc2-c2ccncc2)c1
22	CSc1ccc(-c2nc(-c3cccc(C)c3)c(-c3ccncc3)s2)cc1
43	CC(=O)Nc1nc(-c2cccc(Cl)c2)c(-c2ccncc2)s1
15	Cc1cccc(-c2nc(-c3ccc([S+](C)[O-])cc3)sc2-c2ccncc2)c1 (centres undefined)
48	CC(=O)N(C)c1nc(-c2cccc(C)c2)c(-c2ccncc2)s1
31	Cc1cccc(-c2nc(C(C)(C)C)sc2-c2ccncc2)c1
51	CS(=O)(=O)c1ccc(-c2nc(-c3ccc(F)cc3)c(-c3ccncc3)s2)cc1
45	CC(=O)Nc1nc(-c2ccc(Cl)cc2)c(-c2ccncc2)s1
8.9	CC(=O)Nc1nc(-c2cccc(C)c2)c(-c2ccncc2)s1
5.3	Cc1cccc(-c2nc(-c3ccc(O)cc3)sc2-c2ccncc2)c1
7.3	Cc1cccc(-c2nc(N)sc2-c2ccncc2)c1
27	Cc1cccc(-c2nc(C)sc2-c2ccncc2)c1

From the Kinase Knowledgebase extract (Sharma et al. 2016)
